According to patent US12077503B2, “Substituted cyclic amides and their use as herbicides” (FMC CORPORATION, priority 2015, dated 2024):

Assays:
Format in all cases: in vivo
rice (Oryra sativa) = experiment: Test B flooded paddy test; settings: Flood, 500 g ai/ha; 0 to 100 scale where 0 is no effect and 100 is complete control; 13 to 15 d
Outline: (§1)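 Visual ratings (0 none to 100 complete control) are relative to untreated plants, taken 13–15 d after treatment in a greenhouse. Test material went straight into floodwater standing 3 cm above the soil, kept constant, on plants at the 2-leaf stage.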

[1] = tested on: ducksalad (Heteranthera limosa); experiment: Test B flooded paddy test; settings: Flood, 500 g ai/ha; 0 to 100 scale where 0 is no effect and 100 is complete control; 13 to 15 d
Outline: as §1

[2] = tested on: sedge, umbrella (small-flower umbrella sedge, Cyperus difformis); experiment: Test B flooded paddy test; settings: Flood, 500 g ai/ha; 0 to 100 scale where 0 is no effect and 100 is complete control; 13 to 15 d
Outline: as §1

[3] = tested on: barnyardgrass (Echinochloa crus-galli); experiment: Test B flooded paddy test; settings: Flood, 500 g ai/ha; 0 to 100 scale where 0 is no effect and 100 is complete control; 13 to 15 d
Outline: as §1

Kochia (Kochia scoparia) [4] = experiment: Test A preemergence; settings: for Plant response rating, Kochia: 125 g ai/ha, preemergence, 0 to 100 scale (0 no effect, 100 complete control); for Kochia plant response rating (0 to 100 scale, 0 is no effect, 100 is complete control): Preemergence, 500 g ai/ha, visual injury approx. 10 d
Outline: (§2)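 Each rating is a visual injury score from 0 to 100 given about 10 d after treatment, judged against untreated controls kept alongside in the greenhouse. In loam soil–sand blend, seeds got a preemergence directed soil spray, while postemergence plants were 2 to 10 cm tall at spraying.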

[5] = tested on: ragweed (common ragweed, Ambrosia elatior); experiment: Test A preemergence; settings: for Plant response rating, Ragweed: 125 g ai/ha, preemergence, 0 to 100 scale (0 no effect, 100 complete control); for Ragweed plant response rating (0 to 100 scale, 0 is no effect, 100 is complete control): Preemergence, 500 g ai/ha, visual injury approx. 10 d
Outline: as §2

[6] = tested on: pigweed (Amaranthus retroflexus); experiment: Test A preemergence; settings: for Plant response rating, Pigweed: 125 g ai/ha, preemergence, 0 to 100 scale (0 no effect, 100 complete control); for Pigweed plant response rating (0 to 100 scale, 0 is no effect, 100 is complete control): Preemergence, 500 g ai/ha, visual injury approx. 10 d
[7] = tested on: giant foxtail (Setaria faberii); experiment: Test A preemergence; settings: for Plant response rating, Foxtail, Giant: 125 g ai/ha, preemergence, 0 to 100 scale (0 no effect, 100 complete control); for Foxtail, Giant plant response rating (0 to 100 scale, 0 is no effect, 100 is complete control): Preemergence, 500 g ai/ha, visual injury approx. 10 d
Outline: as §2

[8] = tested on: ryegrass, Italian (Italian ryegrass, Lolium multiflorum); experiment: Test A preemergence; settings: for Plant response rating, Ryegrass, Italian: 125 g ai/ha, preemergence, 0 to 100 scale (0 no effect, 100 complete control); for Ryegrass, Italian plant response rating (0 to 100 scale, 0 is no effect, 100 is complete control): Preemergence, 500 g ai/ha, visual injury approx. 10 d
Outline: as §2

[9] = tested on: barnyardgrass (Echinochloa crus-galli); experiment: Test A preemergence; settings: for Plant response rating, Barnyardgrass: 125 g ai/ha, preemergence, 0 to 100 scale (0 no effect, 100 complete control); for Barnyardgrass plant response rating (0 to 100 scale, 0 is no effect, 100 is complete control): Preemergence, 500 g ai/ha, visual injury approx. 10 d
Outline: as §2

[10] = tested on: blackgrass (Alopecurus myosuroides); experiment: Test A postemergence; settings: postemergence; for Blackgrass plant response rating: 125 g ai/ha, visual injury rating on 0 to 100 scale (0 no effect, 100 complete control), approx. 10 d; for Plant response rating, Blackgrass: 500 g ai/ha, 0 to 100 scale, 0 no effect, 100 complete control
Outline: as §2

Kochia (Kochia scoparia) [11] = experiment: Test A postemergence; settings: postemergence; for Kochia plant response rating: 125 g ai/ha, visual injury rating on 0 to 100 scale (0 no effect, 100 complete control), approx. 10 d; for Plant response rating, Kochia: 500 g ai/ha, 0 to 100 scale, 0 no effect, 100 complete control
Outline: as §2

[12] = tested on: Galium (catchweed bedstraw, Galium aparine); experiment: Test A postemergence; settings: postemergence; for Galium plant response rating: 125 g ai/ha, visual injury rating on 0 to 100 scale (0 no effect, 100 complete control), approx. 10 d; for Plant response rating, Galium: 500 g ai/ha, 0 to 100 scale, 0 no effect, 100 complete control
Outline: as §2

[13] = tested on: ragweed (common ragweed, Ambrosia elatior); experiment: Test A postemergence; settings: postemergence; for Ragweed plant response rating: 125 g ai/ha, visual injury rating on 0 to 100 scale (0 no effect, 100 complete control), approx. 10 d; for Plant response rating, Ragweed: 500 g ai/ha, 0 to 100 scale, 0 no effect, 100 complete control
Outline: as §2

[14] = tested on: pigweed (Amaranthus retroflexus); experiment: Test A postemergence; settings: postemergence; for Pigweed plant response rating: 125 g ai/ha, visual injury rating on 0 to 100 scale (0 no effect, 100 complete control), approx. 10 d; for Plant response rating, Pigweed: 500 g ai/ha, 0 to 100 scale, 0 no effect, 100 complete control
Outline: as §2

[15] = tested on: wheat (Triticum aestivum); experiment: Test A postemergence; settings: postemergence; for Wheat plant response rating: 125 g ai/ha, visual injury rating on 0 to 100 scale (0 no effect, 100 complete control), approx. 10 d; for Plant response rating, Wheat: 500 g ai/ha, 0 to 100 scale, 0 no effect, 100 complete control
Outline: as §2

[16] = tested on: giant foxtail (Setaria faberii); experiment: Test A postemergence; settings: postemergence; for Foxtail, Giant plant response rating: 125 g ai/ha, visual injury rating on 0 to 100 scale (0 no effect, 100 complete control), approx. 10 d; for Plant response rating, Foxtail, Giant: 500 g ai/ha, 0 to 100 scale, 0 no effect, 100 complete control
Outline: as §2

[17] = tested on: ryegrass, Italian (Italian ryegrass, Lolium multiflorum); experiment: Test A postemergence; settings: postemergence; for Ryegrass, Italian plant response rating: 125 g ai/ha, visual injury rating on 0 to 100 scale (0 no effect, 100 complete control), approx. 10 d; for Plant response rating, Ryegrass, Italian: 500 g ai/ha, 0 to 100 scale, 0 no effect, 100 complete control
Outline: as §2

corn (Zea mays) = experiment: Test A postemergence; settings: postemergence; for Corn plant response rating: 125 g ai/ha, visual injury rating on 0 to 100 scale (0 no effect, 100 complete control), approx. 10 d; for Plant response rating, Corn: 500 g ai/ha, 0 to 100 scale, 0 no effect, 100 complete control
Outline: as §2

[18] = tested on: barnyardgrass (Echinochloa crus-galli); experiment: Test A postemergence; settings: postemergence; for Barnyardgrass plant response rating: 125 g ai/ha, visual injury rating on 0 to 100 scale (0 no effect, 100 complete control), approx. 10 d; for Plant response rating, Barnyardgrass: 500 g ai/ha, 0 to 100 scale, 0 no effect, 100 complete control
Outline: as §2

| SMILES | Plant response rating, Rice (rice (Oryra sativa)) | Plant response rating, Ducksalad [1] | Plant response rating, Sedge, Umbrella [2] | Plant response rating, Barnyardgrass [3] | Plant response rating, Kochia (Kochia (Kochia scoparia) [4]) | Kochia plant response rating (0 to 100 scale, 0 is no effect, 100 is complete control) (Kochia (Kochia scoparia) [4]) | Plant response rating, Ragweed [5] | Ragweed plant response rating (0 to 100 scale, 0 is no effect, 100 is complete control) [5] | Plant response rating, Pigweed [6] | Pigweed plant response rating (0 to 100 scale, 0 is no effect, 100 is complete control) [6] | Plant response rating, Foxtail, Giant [7] | Foxtail, Giant plant response rating (0 to 100 scale, 0 is no effect, 100 is complete control) [7] | Plant response rating, Ryegrass, Italian [8] | Ryegrass, Italian plant response rating (0 to 100 scale, 0 is no effect, 100 is complete control) [8] | Plant response rating, Barnyardgrass [9] | Barnyardgrass plant response rating (0 to 100 scale, 0 is no effect, 100 is complete control) [9] | Blackgrass plant response rating [10] | Plant response rating, Blackgrass [10] | Kochia plant response rating (Kochia (Kochia scoparia) [11]) | Plant response rating, Kochia (Kochia (Kochia scoparia) [11]) | also measured |
| --- | --- | --- | --- | --- | --- | --- | --- | --- | --- | --- | --- | --- | --- | --- | --- | --- | --- | --- | --- | --- | --- |
| O=C1NCC(c2ccc(F)c(F)c2)C1C(=O)Nc1ccc(Cl)cc1F (stereo not drawn) [Compound 410] | 0 | 30 | 0 | 0 | 0 | 0 | 0 | 0 | 0 | 20 | 70 | 80 | 0 | 0 | 50 | 60 | 0 | 20 | 0 | 0 | Galium plant response rating [12]: 0; Plant response rating, Galium [12]: 0; Ragweed plant response rating [13]: 0; Plant response rating, Ragweed [13]: 0; Pigweed plant response rating [14]: 0; Plant response rating, Pigweed [14]: 20; Wheat plant response rating [15]: 0; Plant response rating, Wheat [15]: 0; Foxtail, Giant plant response rating [16]: 0; Plant response rating, Foxtail, Giant [16]: 40; Ryegrass, Italian plant response rating [17]: 0; Plant response rating, Ryegrass, Italian [17]: 0; Corn plant response rating (corn (Zea mays)): 0; Plant response rating, Corn (corn (Zea mays)): 0; Barnyardgrass plant response rating [18]: 20; Plant response rating, Barnyardgrass [18]: 50 |
| Cc1cc(NC(=O)C2C(=O)NCC2c2ccc(F)c(F)c2)ccc1C(F)(F)F (stereo not drawn) [Compound 414] | 0 | 40 | 0 | 0 | 0 | 0 | 0 | 0 | 0 | 0 | 0 | 10 | 0 | 0 | 0 | 0 | 0 | 0 | 0 | 10 | Galium plant response rating [12]: 0; Plant response rating, Galium [12]: 0; Ragweed plant response rating [13]: 0; Plant response rating, Ragweed [13]: 0; Pigweed plant response rating [14]: 0; Plant response rating, Pigweed [14]: 0; Wheat plant response rating [15]: 0; Plant response rating, Wheat [15]: 0; Foxtail, Giant plant response rating [16]: 0; Plant response rating, Foxtail, Giant [16]: 0; Ryegrass, Italian plant response rating [17]: 0; Plant response rating, Ryegrass, Italian [17]: 0; Corn plant response rating (corn (Zea mays)): 0; Plant response rating, Corn (corn (Zea mays)): 0; Barnyardgrass plant response rating [18]: 0; Plant response rating, Barnyardgrass [18]: 0 |
